In PubChem BioAssay (NCI) one finds TGI data, which are given here for 12 molecules.

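Tested at 5 concentrations; 48 h exposure; 96-well plates; endpoints linearly interpolated, else capped at highest concentration. At the TGI there is no net growth.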 Some results are limits rather than exact numbers.

Test systems include MDA-MB-231 breast; SK-OV-3 ovarian; EKVX NSCLC; SK-MEL-5 melanoma; SR leukemia; K-562 leukemia; UACC-257 melanoma; OVCAR-4 ovarian; MALME-3M melanoma; NCI-H23 lung; OVCAR-8 ovarian; KM12 colon; UACC-62 melanoma; IGROV1 ovarian; HCC-2998 colon; 786-0 renal; HT29 colon; COLO 205 colon.
Common to all, as to assay: NCI-60 cell line screen, 48 h

On to `CC[C@@H]1/C=C/C=C/C[C@H](C)[C@@H](O)[C@@H](C)C(=O)[C@H](C)[C@@H](O)[C@H](C)C(=O)[C@H](C)[C@@H](O)[C@H](C)/C=C/C(=O)O[C@H]2[C@@H](C)[C@@H](CC1)O[C@@]1(CC[C@@H](C)[C@@H](CC(C)O)O1)[C@@H]2C` (stereo partly specified), for which the TGI in the assay with MDA-MB-231 breast was over 17.4 µM; in the assay on SK-OV-3 ovarian, over 21.3 µM; in the assay with EKVX NSCLC, 7.44 µM; in the assay with SK-MEL-5 melanoma, 3.38 µM; with SR leukemia, 10.2 µM; with K-562 leukemia, over 25 µM. Also, the TGI was 1.82 µM with UACC-257 melanoma; over 19.3 µM in the assay on OVCAR-4 ovarian; over 24 µM in the assay with MALME-3M melanoma; over 25 µM with NCI-H23 lung; over 25 µM in the assay on OVCAR-8 ovarian; over 21.5 µM in the assay with KM12 colon. Also, the TGI is 14.5 µM with UACC-62 melanoma; 24.9 µM in the assay on IGROV1 ovarian; 8.52 µM with HCC-2998 colon; over 25 µM in the assay on 786-0 renal; 13.9 µM in the assay on HT29 colon; 4.62 µM in the assay with COLO 205 colon.
In the case of `O=c1[nH]c(=S)[nH]cc1CN1CCOCC1`, the TGI in the assay with MDA-MB-231 breast, in the assay with SK-OV-3 ovarian, with EKVX NSCLC, with SK-MEL-5 melanoma, in the assay with SR leukemia and with K-562 leukemia was over 100 µM throughout. In addition, the TGI in the assay on UACC-257 melanoma, in the assay on OVCAR-4 ovarian, with MALME-3M melanoma, with NCI-H23 lung, with OVCAR-8 ovarian and in the assay on KM12 colon was over 100 µM each time. The TGI with UACC-62 melanoma, in the assay with IGROV1 ovarian, in the assay on HCC-2998 colon, in the assay on 786-0 renal, in the assay on HT29 colon and with COLO 205 colon was over 100 µM throughout.
For `CN(Cc1cnc2nc(N)nc(N)c2n1)c1ccc(C(=O)NCCCS(=O)(=O)O)cc1`, the TGI in the assay with MDA-MB-231 breast, in the assay on SK-OV-3 ovarian, with EKVX NSCLC, in the assay on SK-MEL-5 melanoma, in the assay on SR leukemia and in the assay on K-562 leukemia was over 100 µM in each case. For the same molecule, the TGI in the assay on UACC-257 melanoma, in the assay with OVCAR-4 ovarian, in the assay with MALME-3M melanoma, in the assay with NCI-H23 lung, in the assay with OVCAR-8 ovarian and in the assay on KM12 colon was over 100 µM in each case. Also, the TGI in the assay with UACC-62 melanoma, with IGROV1 ovarian, in the assay on HCC-2998 colon, in the assay with 786-0 renal, in the assay on HT29 colon and in the assay on COLO 205 colon was over 100 µM in each case.
Consider `C#CCOC(=O)C(N)CC(N)=O` (stereo unspecified), for which the TGI in the assay with MDA-MB-231 breast, with SK-OV-3 ovarian, in the assay on EKVX NSCLC, in the assay with SK-MEL-5 melanoma, with SR leukemia and with K-562 leukemia was over 100 µM throughout. For the same molecule, the TGI in the assay on UACC-257 melanoma, with OVCAR-4 ovarian, in the assay with MALME-3M melanoma, in the assay with NCI-H23 lung, with OVCAR-8 ovarian and in the assay with KM12 colon was over 100 µM each time. Further, the TGI was over 100 µM in the assay with UACC-62 melanoma; over 100 µM in the assay on IGROV1 ovarian; over 100 µM with HCC-2998 colon; over 100 µM with 786-0 renal; over 31.6 µM in the assay with HT29 colon; over 100 µM in the assay with COLO 205 colon.
In the case of `CC(C#N)(c1ccccc1)N(CCc1ccccc1)C(=O)Oc1ccccc1` (stereo unspecified), the TGI with MDA-MB-231 breast, with SK-OV-3 ovarian, in the assay with EKVX NSCLC, in the assay with SK-MEL-5 melanoma, in the assay on SR leukemia and in the assay on K-562 leukemia was over 100 µM in each case. Further, the TGI in the assay on UACC-257 melanoma, in the assay on OVCAR-4 ovarian, in the assay with MALME-3M melanoma, in the assay with NCI-H23 lung, with OVCAR-8 ovarian and in the assay on KM12 colon was over 100 µM throughout. For the same molecule, the TGI in the assay on UACC-62 melanoma, with IGROV1 ovarian, with HCC-2998 colon, in the assay with 786-0 renal, in the assay with HT29 colon and in the assay with COLO 205 colon was over 100 µM throughout.
As to `NS(=O)(=O)c1ccc(NC(=S)NC(=O)Nc2ccc(Cl)c(Cl)c2)cc1`, the TGI in the assay with MDA-MB-231 breast was 33.5 µM; in the assay with SK-OV-3 ovarian, 38.9 µM; with EKVX NSCLC, 51 µM; with SK-MEL-5 melanoma it was 31.1 µM; in the assay with SR leukemia it was over 100 µM; with K-562 leukemia, over 82.6 µM. Also, the TGI in the assay with UACC-257 melanoma was determined as 41.4 µM; with OVCAR-4 ovarian, 44.1 µM; in the assay on MALME-3M melanoma, 33.5 µM; with NCI-H23 lung, 33.7 µM; in the assay on OVCAR-8 ovarian it was 41.2 µM; in the assay on KM12 colon, 28.3 µM. Also, the TGI with UACC-62 melanoma was 28.7 µM; with IGROV1 ovarian, 39.2 µM; in the assay on HCC-2998 colon it was 30.9 µM; in the assay on 786-0 renal it was 31.1 µM; in the assay with HT29 colon, 31.3 µM; in the assay on COLO 205 colon it was 32.3 µM.
On to `COC(=O)NC(=O)NC(Cc1ccccc1)NC(=O)OCc1ccccc1` (stereo unspecified), for which the TGI in the assay with MDA-MB-231 breast is 78.1 µM; with SK-OV-3 ovarian it was 57.5 µM; in the assay on EKVX NSCLC, over 100 µM; with SK-MEL-5 melanoma, over 100 µM; in the assay on SR leukemia, over 100 µM; in the assay with K-562 leukemia, over 100 µM. Moreover, the TGI with UACC-257 melanoma, with OVCAR-4 ovarian, with MALME-3M melanoma, in the assay on NCI-H23 lung, with OVCAR-8 ovarian and in the assay with KM12 colon was over 100 µM throughout. Besides, the TGI in the assay on UACC-62 melanoma, in the assay on IGROV1 ovarian, in the assay on HCC-2998 colon, in the assay on 786-0 renal, with HT29 colon and in the assay on COLO 205 colon was over 100 µM each time.
Regarding `Clc1ccc(OCC2NC3CCC2CC3)cn1` (stereo unspecified), the TGI was 47.8 µM with MDA-MB-231 breast; over 100 µM with SK-OV-3 ovarian; 60.6 µM in the assay on EKVX NSCLC; 31.8 µM with SK-MEL-5 melanoma; 44.6 µM with SR leukemia; 41.4 µM with K-562 leukemia. Moreover, the TGI was 36 µM in the assay on UACC-257 melanoma; over 100 µM in the assay on OVCAR-4 ovarian; 39.6 µM in the assay on MALME-3M melanoma; over 100 µM in the assay with NCI-H23 lung; over 100 µM in the assay on OVCAR-8 ovarian; 35.3 µM in the assay with KM12 colon. Besides, the TGI with UACC-62 melanoma is 39.3 µM; with IGROV1 ovarian, over 100 µM; with HCC-2998 colon it was 32.5 µM; in the assay on 786-0 renal, 36.7 µM; in the assay with HT29 colon, 33.3 µM; in the assay with COLO 205 colon, 32.4 µM.
In the case of `Brc1ccc(C2=NCSC(c3ccc(Br)cc3)=N2)cc1`, the TGI was over 100 µM in the assay with MDA-MB-231 breast; over 100 µM in the assay with SK-OV-3 ovarian; 38.5 µM with EKVX NSCLC; 64.5 µM in the assay on SK-MEL-5 melanoma; 47.4 µM in the assay on SR leukemia; over 100 µM with K-562 leukemia. Further, the TGI is 71 µM with UACC-257 melanoma; over 100 µM in the assay on OVCAR-4 ovarian; over 100 µM in the assay on MALME-3M melanoma; over 100 µM in the assay on NCI-H23 lung; over 100 µM in the assay on OVCAR-8 ovarian; over 100 µM in the assay with KM12 colon. Also, the TGI in the assay on UACC-62 melanoma is 29.8 µM; with IGROV1 ovarian, over 100 µM; with HCC-2998 colon, 51 µM; in the assay on 786-0 renal, 40.4 µM; in the assay with HT29 colon it was 86.3 µM; with COLO 205 colon it was over 100 µM.
Turning to `O=C1Cc2c(-c3cccs3)cc(-c3ccccc3)nc2-c2ccccc2N1`, the TGI in the assay with MDA-MB-231 breast, in the assay with SK-OV-3 ovarian, in the assay with EKVX NSCLC, in the assay on SK-MEL-5 melanoma, in the assay on SR leukemia and in the assay on K-562 leukemia was over 100 µM each time. Moreover, the TGI in the assay with UACC-257 melanoma is over 100 µM; with OVCAR-4 ovarian it was over 100 µM; with MALME-3M melanoma it was 45.7 µM; in the assay with NCI-H23 lung it was over 100 µM; in the assay on OVCAR-8 ovarian it was 17.1 µM; in the assay with KM12 colon it was over 100 µM. In addition, the TGI in the assay with UACC-62 melanoma is over 100 µM; in the assay on IGROV1 ovarian it was 71.5 µM; in the assay with HCC-2998 colon, over 100 µM; in the assay on 786-0 renal, over 100 µM; with HT29 colon, 43.9 µM; with COLO 205 colon, over 100 µM.
Turning to `COc1cc(CN=c2nc(N(C)C)ss2)cc(OC)c1OC`, the TGI in the assay with MDA-MB-231 breast was over 10 µM; in the assay with SK-OV-3 ovarian it was over 10 µM; with EKVX NSCLC it was over 10 µM; with SK-MEL-5 melanoma it was over 10 µM; in the assay with SR leukemia, 3.38 µM; in the assay with K-562 leukemia it was 5.67 µM. Moreover, the TGI was over 10 µM in the assay with UACC-257 melanoma; over 10 µM in the assay on OVCAR-4 ovarian; over 9.27 µM with MALME-3M melanoma; over 10 µM in the assay on NCI-H23 lung; over 8.92 µM in the assay on OVCAR-8 ovarian; over 10 µM in the assay on KM12 colon. The TGI was over 10 µM with UACC-62 melanoma; over 10 µM with IGROV1 ovarian; over 10 µM with HCC-2998 colon; over 5.44 µM in the assay with 786-0 renal; over 10 µM in the assay on HT29 colon; over 10 µM in the assay on COLO 205 colon.
With `Cc1ccc(S(=O)(=O)NNC(=O)Nc2cccc(C(F)(F)F)c2)cc1`, the TGI in the assay on MDA-MB-231 breast, with SK-OV-3 ovarian, in the assay with EKVX NSCLC, with SK-MEL-5 melanoma, with SR leukemia and with K-562 leukemia was over 100 µM in each case. Further, the TGI with UACC-257 melanoma, in the assay on OVCAR-4 ovarian, in the assay with MALME-3M melanoma, in the assay with NCI-H23 lung, in the assay with OVCAR-8 ovarian and in the assay on KM12 colon was over 100 µM each time. Also, the TGI in the assay on UACC-62 melanoma, with IGROV1 ovarian, in the assay with HCC-2998 colon, with 786-0 renal, in the assay on HT29 colon and in the assay on COLO 205 colon was over 100 µM throughout.
